20 compounds from US12187727B2, “Methods for antagonizing a melanocortin 4 receptor” (Pfizer Inc., priority 2020, dated 2025) can be followed below.

One assay deals with human Melanocortin-4 receptor (MC4R) (Homo sapiens (Human), UniProt P32245). Description: Functional in vitro MC4R antagonist potency assay (cAMP HTRF in CHO cells). In kind it is cell-based. The conditions noted are these: human MC4R in CHO cells, cAMP HTRF, 200 nM aMSH challenge; Kb from IC50 by Leff-Dougall equation; geometric mean; read-out: Kb (nM) Antagonist geometric. The method, then: Example BB. Functional In Vitro MC4R Antagonist Potency Assay
Chain of human Melanocortin-4 receptor (MC4R) (P32245 whole entry): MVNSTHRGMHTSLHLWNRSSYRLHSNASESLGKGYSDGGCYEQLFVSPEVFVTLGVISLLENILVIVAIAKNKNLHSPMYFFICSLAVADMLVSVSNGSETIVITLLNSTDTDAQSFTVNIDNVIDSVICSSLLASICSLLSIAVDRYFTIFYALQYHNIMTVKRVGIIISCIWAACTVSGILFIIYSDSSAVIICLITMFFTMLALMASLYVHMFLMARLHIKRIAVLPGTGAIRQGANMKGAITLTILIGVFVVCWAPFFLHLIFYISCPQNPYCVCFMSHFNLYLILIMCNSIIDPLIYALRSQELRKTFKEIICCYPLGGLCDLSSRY
The functional in vitro antagonist potency for test compounds was determined by monitoring intracellular cyclic adenosine monophosphate (cAMP) levels in Chinese hamster ovary (CHO—) cells stably expressing the human Melanocortin-4 receptor (MC4R). Following agonist activation, human MC4R associates with the G-protein complex causing the Gα subunit to exchange bound GDP for GTP, followed by dissociation of the Ga-GTP complex. The activated Gα subunit can couple to downstream effectors to regulate the levels of second messengers or cAMP within the cell. Thereby, determination of intracellular cAMP levels allows for pharmacological characterization. Intracellular cAMP levels are quantitated using a homogenous assay utilizing the Homogeneous Time-Resolved Fluorescence (HTRF) technology from CisBio. The method is a competitive immunoassay between native cAMP produced by cells and the cAMP labelled with the acceptor dye, d2. The two entities then compete for binding to a monoclonal anti-cAMP antibody labeled with cryptate. The specific signal is inversely proportional to the concentration of cAMP in the cells.
Test compounds were solubilized to 30 mM in 100% dimethyl sulfoxide (DMSO) and stored. […] The final compound concentration range in the assay was 400 nM to […], with a final DMSO concentration of 0.1%.
(95% O2: 5% CO2) overnight, with micro-clime lids (Labcyte, Cat No. LLS-0310). […] Cells were incubated with compound for 30 minutes at 37° C. (95% O2: 5% CO2) before addition of 5 μL EC80, agonist stimulation (200 nM α-melanocyte stimulating hormone, aMSH, Bachem) and another 30-minute incubation at 37° C. (95% O2: 5% CO2). Intracellular cAMP levels were quantified as per Cisbio's protocol (5 uL of D2 and then 5 uL Cryptate, incubated for 1-2 hours at room temperature).
Data expressed as nM cAMP were then normalized to control wells using Activity Base (IDBS). Zero percent effect (ZPE) was defined as nM of cAMP generated from ECK, agonist stimulation (200 nM aMSH). In the absence of an antagonist control compound, one hundred percent effect (HPE) was defined as nM of cAMP generated from assay buffer/vehicle only.
(In general: In TR-FRET formats the signal depends on donor and acceptor labels being close together.)
What is called Kb is the equilibrium dissociation constant of an antagonist, usually derived from a functional assay. `COc1cc([C@@H](C)C(=O)N2CC[C@]3(CCc4cc(-c5nnn(C)n5)c(C)nc4N3)C2)c(F)cn1` [Example 116, (2R)-2-(5-fluoro-2-methoxypyridin-4-yl)-1-[(2R)-7-methyl-6-(2-methyl-2H-tetrazol-5-yl)-3,4-dihydro-1H-spiro[1,8-naphthyridine-2,3′-pyrrolidin]-1′-yl]propan-1-one]: the Kb is 1.7 nM.
Regarding `COc1cc([C@@H](C)C(=O)N2CC[C@@]3(CCc4cc(-c5nc6ccccn6n5)c(C)nc4N3)C2)c(Cl)cn1` [Example 117, (2R)-2-(5-chloro-2-methoxypyridin-4-yl)-1-[(2S)-7-methyl-6-([1,2,4]triazolo[1,5-a]pyridin-2-yl)-3,4-dihydro-1H-spiro[1,8-naphthyridine-2,3′-pyrrolidin]-1′-yl]propan-1-one], the Kb came out at 0.07 nM.
Still for that read-out and setting: then `COc1cc([C@@H](C)C(=O)N2CC[C@@]3(CCc4cc(-c5cnn(C)n5)c(C)nc4N3)C2)c(F)cn1` [Example 118, (2R)-2-(5-fluoro-2-methoxypyridin-4-yl)-1-[(2S)-7-methyl-6-(2-methyl-2H-1,2,3-triazol-4-yl)-3,4-dihydro-1H-spiro[1,8-naphthyridine-2,3′-pyrrolidin]-1′-yl]propan-1-one], with 0.93 nM.
The same measure, in the same setting: then `COc1cc([C@@H](C)C(=O)N2CC[C@@]3(CCc4cc(-c5cnn(C)n5)c(C)nc4N3)C2)c(Cl)cn1` [Example 119, (2R)-2-(5-chloro-2-methoxypyridin-4-yl)-1-[(2S)-7-methyl-6-(2-methyl-2H-1,2,3-triazol-4-yl)-3,4-dihydro-1H-spiro[1,8-naphthyridine-2,3′-pyrrolidin]-1′-yl]propan-1-one], with more than 1.1 nM; and `COc1cc([C@@H](C)C(=O)N2CC[C@@]3(CCc4cc(-c5nc(C(F)F)n(C)n5)c(C)nc4N3)C2)c(Cl)cn1` [Example 120, (2R)-2-(5-chloro-2-methoxypyridin-4-yl)-1-{(2S)-6-[5-(difluoromethyl)-1-methyl-1H-1,2,4-triazol-3-yl]-7-methyl-3,4-dihydro-1H-spiro[1,8-naphthyridine-2,3′-pyrrolidin]-1′-yl}propan-1-one], with 0.08 nM.
On the same count and under the same terms, the figure for `Cc1nc2c(cc1-c1nc(C(F)F)n(C)n1)CC[C@@]1(CCN(C(=O)Cc3ccc(F)c(F)c3)C1)N2` [Example 121, 1-{(2S)-6-[5-(difluoromethyl)-1-methyl-1H-1,2,4-triazol-3-yl]-7-methyl-3,4-dihydro-1H-spiro[1,8-naphthyridine-2,3′-pyrrolidin]-1′-yl}-2-(3,4-difluorophenyl)ethan-1-one] is 4 nM; for `COc1cc([C@@H](C)C(=O)N2CC[C@@]3(CCc4cc(-c5nc(C(F)F)n(C)n5)c(C)nc4N3)C2)c(F)cn1` [Example 122, (2R)-1-{(2S)-6-[5-(difluoromethyl)-1-methyl-1H-1,2,4-triazol-3-yl]-7-methyl-3,4-dihydro-1H-spiro[1,8-naphthyridine-2,3′-pyrrolidin]-1′-yl}-2-(5-fluoro-2-methoxypyridin-4-yl)propan-1-one] it is 0.11 nM; for `COc1cc([C@@H](C)C(=O)N2CC[C@@]3(CCc4cc(C5CCOCC5)c(C)nc4N3)C2)c(F)cn1` [Example 131, (2R)-2-(5-fluoro-2-methoxypyridin-4-yl)-1-[(2S)-7-methyl-6-(oxan-4-yl)-3,4-dihydro-1H-spiro[1,8-naphthyridine-2,3′-pyrrolidin]-1′-yl]propan-1-one] it is 16 nM.
Regarding `COc1cc([C@@H](C)C(=O)N2CC[C@@]3(CCc4cc(-c5cn(C(F)F)c(C)n5)c(C)nc4N3)C2)c(F)cn1` [Example 138, (2R)-1-{(2S)-6-[1-(difluoromethyl)-2-methyl-1H-imidazol-4-yl]-7-methyl-3,4-dihydro-1H-spiro[1,8-naphthyridine-2,3′-pyrrolidin]-1′-yl}-2-(5-fluoro-2-methoxypyridin-4-yl)propan-1-one], the Kb was 0.44 nM.
Same read-out and setting: then `COc1cc([C@@H](C)C(=O)N2CC[C@@]3(CCc4cc(-c5ccc(F)cn5)c(C)nc4N3)C2)c(F)cn1` [Example 139, (2R)-2-(5-fluoro-2-methoxypyridin-4-yl)-1-[(2S)-6-(5-fluoropyridin-2-yl)-7-methyl-3,4-dihydro-1H-spiro[1,8-naphthyridine-2,3′-pyrrolidin]-1′-yl]propan-1-one], with 21 nM; and `COc1cc([C@@H](C)C(=O)N2CC[C@@]3(CCc4cc(-c5ccccn5)c(C)nc4N3)C2)c(F)cn1` [Example 140, (2R)-2-(5-fluoro-2-methoxypyridin-4-yl)-1-[(2S)-7-methyl-6-(pyridin-2-yl)-3,4-dihydro-1H-spiro[1,8-naphthyridine-2,3′-pyrrolidin]-1′-yl]propan-1-one], with 19 nM; and `COc1cc([C@@H](C)C(=O)N2CC[C@@]3(CCc4cc(-c5ccnnc5)c(C)nc4N3)C2)c(F)cn1` [Example 141, (2R)-2-(5-fluoro-2-methoxypyridin-4-yl)-1-[(2S)-7-methyl-6-(pyridazin-4-yl)-3,4-dihydro-1H-spiro[1,8-naphthyridine-2,3′-pyrrolidin]-1′-yl]propan-1-one], with 29 nM.
`COc1cc([C@@H](C)C(=O)N2CC[C@@]3(CCc4cc(-c5nccc(C(F)(F)F)n5)c(C)nc4N3)C2)c(F)cn1` [Example 143, (2R)-2-(5-fluoro-2-methoxypyridin-4-yl)-1-{(2S)-7-methyl-6-[4-(trifluoromethyl)pyrimidin-2-yl]-3,4-dihydro-1H-spiro[1,8-naphthyridine-2,3′-pyrrolidin]-1′-yl}propan-1-one]: the antagonist equilibrium constant (Kb) turned out to be 2.6 nM.
Same read-out and setting: the figure for `COc1cc([C@@H](C)C(=O)N2CC[C@@]3(CCc4cc(-c5ncc(Cl)cn5)c(C)nc4N3)C2)c(F)cn1` [Example 144, (2R)-1-[(2S)-6-(5-chloropyrimidin-2-yl)-7-methyl-3,4-dihydro-1H-spiro[1,8-naphthyridine-2,3′-pyrrolidin]-1′-yl]-2-(5-fluoro-2-methoxypyridin-4-yl)propan-1-one] is 8.5 nM; for `COc1cc([C@@H](C)C(=O)N2CC[C@@]3(CCc4cc(-c5ncc(C(F)(F)F)cn5)c(C)nc4N3)C2)c(F)cn1` [Example 145, (2R)-2-(5-fluoro-2-methoxypyridin-4-yl)-1-{(2S)-7-methyl-6-[5-(trifluoromethyl)pyrimidin-2-yl]-3,4-dihydro-1H-spiro[1,8-naphthyridine-2,3′-pyrrolidin]-1′-yl}propan-1-one] it is 54 nM.
The same measure, in the same setting: the figure for `COc1cc([C@@H](C)C(=O)N2CC[C@@]3(CCc4cc(-c5ncc(F)cn5)c(C)nc4N3)C2)c(F)cn1` [Example 146, (2R)-2-(5-fluoro-2-methoxypyridin-4-yl)-1-[(2S)-6-(5-fluoropyrimidin-2-yl)-7-methyl-3,4-dihydro-1H-spiro[1,8-naphthyridine-2,3′-pyrrolidin]-1′-yl]propan-1-one] is 1.2 nM.

The same assay, now with this note: read-out: Kb (nM) Antagonist geometric mean.
As to `Cc1nc2c(cc1-c1ncccn1)CC[C@@]1(CCN(C(=O)Cc3cc(F)c(F)c(F)c3)C1)N2` [Example 54, 1-[(2S)-7-methyl-6-(pyrimidin-2-yl)-3,4-dihydro-1H-spiro[1,8-naphthyridine-2,3′-pyrrolidin]-1′-yl]-2-(3,4,5-trifluorophenyl)ethan-1-one], the Kb is 4.1 nM.
Still for that read-out and setting: the figure for `COc1cnc(-c2cc3c(nc2C)N[C@@]2(CC3)CCN(C(=O)[C@H](C)c3cc(OC)ncc3F)C2)nc1` [Example 67, (2R)-2-(5-fluoro-2-methoxypyridin-4-yl)-1-[(2S)-6-(5-methoxypyrimidin-2-yl)-7-methyl-3,4-dihydro-1H-spiro[1,8-naphthyridine-2,3′-pyrrolidin]-1′-yl]propan-1-one] is 14 nM; for `Cc1nc2c(cc1-c1ncccn1)CC[C@@]1(CCN(C(=O)Cc3ccc(C(F)(F)F)cc3)C1)N2` [Example 73, 1-[(2S)-7-methyl-6-(pyrimidin-2-yl)-3,4-dihydro-1H-spiro[1,8-naphthyridine-2,3′-pyrrolidin]-1yl]-2-[4-(trifluoromethyl)phenyl]ethan-1-one] it is 17 nM; for `[2H]C([2H])([2H])Oc1cc([C@@H](C)C(=O)N2CC[C@@]3(CCc4cc(-c5ncccn5)c(C)nc4N3)C2)c(F)cn1` [Example 74, (2R)-2-{5-fluoro-2-[(^2H3)methyloxy]pyridin-4-yl}-1-[(2S)-7-methyl-6-(pyrimidin-2-yl)-3,4-dihydro-1H-spiro[1,8-naphthyridine-2,3′-pyrrolidin]-1′-yl]propan-1-one] it is 0.6 nM.
